# Assay results: publication PMC9782245, “Synthesis and Structural Optimization of 2,7,9-Trisubstituted purin-8-ones as FLT3-ITD Inhibitors” (International Journal of Molecular Sciences, 2022)
# pIC50: −log10 of the molar value. Where “and” joins values, the source holds several entries; their conditions need not be identical. Identical values can stand only once. Like-named read-outs stand apart in the source and are kept apart here.
# What was measured:
# MV4-11 cells = test: Resazurin-based viability assay, MV4-11; format: cell-based, Human; conditions: for GI50: Homo sapiens, MV4-11, 72 h, resazurin, at least duplicate experiments
# Excerpt: (§1) In parallel to kinase assays, we measured the effect of compounds on the viability of cancer cell lines MV4-11 and K562 using a resazurin-based assay. MV4-11 is an AML cell line dependent on a constitutively activated FLT3-ITD kinase with high sensitivity to FLT3 inhibition, K562 cells (chronic myelogenous leukemia) are independent on FLT3.
# (§2) Human cell lines were obtained from the European Collection of Authenticated Cell Cultures (K562) and Cell lines service (MV4-11) and were cultivated according to the provider’s instructions. Briefly, cells were maintained in RPMI-1640 (MV4-11) or DMEM (K562) supplemented with 10% fetal bovine serum, penicillin (100 U/mL), and streptomycin (0.1 mg/mL) at 37 °C in 5% CO2. For the viability assays, cells were treated in triplicate with six different doses of each compound for 72 h. After treatments, the resazurin (Sigma Aldrich, St. Louis, MO, USA) solution was added for 4 h, and the fluorescence of resorufin corresponding to live cells was measured at 544/590 nm (excitation/emission) using a Fluoroskan Ascent microplate reader (Labsystems). The GI50 value, the drug concentration lethal to 50% of the cells, was calculated from the dose-response curves that resulted from the assays.
# K562 cells = test: Resazurin-based viability assay, K562; format: cell-based; conditions: Homo sapiens, 72 h, at least duplicate experiments
# Excerpt: as §1, §2
# CDK2/E = CDK2/E (Homo sapiens, UniProt P24941); test: Kinase inhibition assay CDK2/E; format: biochemical
# Description: (§3) Newly prepared compounds 12–15 were assayed for inhibition of FLT3-ITD kinase as well as CDK4 and CDK2, known off-targets of structurally related compounds. We observed that CDK4 was sensitive to nearly all compounds with IC50 values in mid-nanomolar values.
# (§4) CDK/cyclin complexes and FLT3 kinases were assayed as previously described. Protein kinase selectivity was evaluated at a single concentration (1 µM) by screening against 30 enzymes at Eurofins Discovery (France).
# CDK4/D1 = CDK4/D1 (Homo sapiens, UniProt P11802); test: Kinase inhibition assay CDK4/D1; format: biochemical
# Description: as §3, §4
# FLT3-ITD = target: T1, FLT3-ITD (Homo sapiens, UniProt P36888, ITD); test: Kinase inhibition assay FLT3-ITD; format: biochemical
# T1 sequence (P36888 27-993): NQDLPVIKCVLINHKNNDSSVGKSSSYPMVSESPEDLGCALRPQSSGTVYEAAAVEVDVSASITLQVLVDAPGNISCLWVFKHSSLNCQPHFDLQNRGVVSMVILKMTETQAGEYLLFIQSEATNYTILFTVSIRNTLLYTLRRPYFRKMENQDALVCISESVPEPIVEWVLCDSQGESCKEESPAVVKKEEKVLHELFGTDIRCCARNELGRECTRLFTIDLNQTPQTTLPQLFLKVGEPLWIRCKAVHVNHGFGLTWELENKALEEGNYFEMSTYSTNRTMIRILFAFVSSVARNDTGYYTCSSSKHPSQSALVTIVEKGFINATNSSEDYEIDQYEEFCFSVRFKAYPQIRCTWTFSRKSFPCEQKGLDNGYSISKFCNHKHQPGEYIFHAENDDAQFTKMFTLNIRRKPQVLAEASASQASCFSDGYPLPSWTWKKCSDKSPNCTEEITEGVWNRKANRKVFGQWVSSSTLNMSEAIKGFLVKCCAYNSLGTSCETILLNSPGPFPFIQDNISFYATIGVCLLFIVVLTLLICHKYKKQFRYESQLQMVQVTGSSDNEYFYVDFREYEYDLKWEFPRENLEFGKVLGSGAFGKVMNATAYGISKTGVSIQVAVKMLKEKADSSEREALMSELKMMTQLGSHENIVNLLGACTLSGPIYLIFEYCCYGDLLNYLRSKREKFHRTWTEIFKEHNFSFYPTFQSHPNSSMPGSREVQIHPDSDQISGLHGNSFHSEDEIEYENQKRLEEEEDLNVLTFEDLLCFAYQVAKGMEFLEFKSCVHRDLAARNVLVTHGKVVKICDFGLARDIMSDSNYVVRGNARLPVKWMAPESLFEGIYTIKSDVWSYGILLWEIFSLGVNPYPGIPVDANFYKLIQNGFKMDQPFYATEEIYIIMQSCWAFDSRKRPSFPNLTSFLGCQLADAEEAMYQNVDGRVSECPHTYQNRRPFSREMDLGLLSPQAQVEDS
# Description: as §3, §4
# CDK4 = target: T2, CDK4 (Homo sapiens, UniProt P11802); test: Kinase selectivity panel at 1 µM (Eurofins), CDK4; format: biochemical
# T2 construct: purchased Eurofins Discovery (France)
# Description: (§5) Three representative compounds (14d, 14e, and 15a) were profiled in a 1 µM concentration against 30 kinases that were selected as known off-targets of approved CDK4/6 inhibitors. […] Additional sensitive kinases include STK16, EphA1, MEKK2, SRC, and MER (≤10% of residual enzyme activities), which are not targets of the structurally similar CDK4/6 inhibitor, trilaciclib. We also screened compound 15a, an analogue of 14d, bearing isopropyl at position 7 of the purine instead of the methyl group. This change rapidly diminished the potency against CDK4 (dropped to 90% of residual enzyme activity), but the preference for FLT3 remained (1st rank) (Figure 2).
# as §4
# FLT3 = target: T3, FLT3 (Homo sapiens, UniProt P36888); test: Kinase selectivity panel at 1 µM (Eurofins), FLT3; format: biochemical; conditions: 30 kinases
# T3 construct: purchased Eurofins Discovery (France)
# T3 sequence (P36888 27-993): T1 sequence (P36888 27-993)
# Description: as §5, §4
# Src = target: T4, Src (Homo sapiens, UniProt P12931); test: Kinase selectivity panel at 1 µM (Eurofins), Src; format: biochemical; conditions: read-out: residual enzyme activity Src
# T4 construct: purchased Eurofins Discovery (France)
# Description: as §5, §4
# [1] = at least duplicate experiments, read-out: IC50 CDK2/E
# [2] = at least duplicate experiments, read-out: IC50 CDK4/D1
# [3] = at least duplicate experiments, read-out: IC50 FLT3-ITD
# CDK4/D1, sequence (P11802 whole entry): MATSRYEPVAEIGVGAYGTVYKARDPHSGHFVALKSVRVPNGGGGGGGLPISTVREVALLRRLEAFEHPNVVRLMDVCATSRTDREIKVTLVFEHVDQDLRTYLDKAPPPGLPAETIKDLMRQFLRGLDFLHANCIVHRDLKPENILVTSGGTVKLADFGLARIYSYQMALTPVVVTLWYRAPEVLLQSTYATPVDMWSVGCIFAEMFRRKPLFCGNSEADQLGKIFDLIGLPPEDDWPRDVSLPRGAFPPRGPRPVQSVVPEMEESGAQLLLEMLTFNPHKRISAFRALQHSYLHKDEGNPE
# CDK4/D1, sequence (P24385 whole entry partner): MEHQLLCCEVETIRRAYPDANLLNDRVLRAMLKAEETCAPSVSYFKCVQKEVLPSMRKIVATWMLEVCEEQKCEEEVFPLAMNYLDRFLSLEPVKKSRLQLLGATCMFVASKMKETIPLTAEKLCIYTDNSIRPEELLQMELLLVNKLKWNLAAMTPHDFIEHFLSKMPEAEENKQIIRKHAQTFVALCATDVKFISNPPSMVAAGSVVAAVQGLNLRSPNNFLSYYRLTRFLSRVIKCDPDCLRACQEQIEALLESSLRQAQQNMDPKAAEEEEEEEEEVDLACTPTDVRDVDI
# T2 sequence (P11802 whole entry): as the sequence (P11802 whole entry) above
# T2 sequence (P30281 whole entry partner): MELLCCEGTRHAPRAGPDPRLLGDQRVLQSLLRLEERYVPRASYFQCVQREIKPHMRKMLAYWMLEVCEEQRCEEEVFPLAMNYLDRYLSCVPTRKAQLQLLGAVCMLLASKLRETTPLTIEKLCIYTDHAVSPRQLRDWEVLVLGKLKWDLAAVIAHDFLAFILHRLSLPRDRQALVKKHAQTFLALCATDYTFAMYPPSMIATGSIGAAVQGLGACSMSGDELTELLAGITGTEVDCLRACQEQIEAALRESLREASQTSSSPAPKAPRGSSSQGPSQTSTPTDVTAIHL
# T4 sequence (P12931 whole entry): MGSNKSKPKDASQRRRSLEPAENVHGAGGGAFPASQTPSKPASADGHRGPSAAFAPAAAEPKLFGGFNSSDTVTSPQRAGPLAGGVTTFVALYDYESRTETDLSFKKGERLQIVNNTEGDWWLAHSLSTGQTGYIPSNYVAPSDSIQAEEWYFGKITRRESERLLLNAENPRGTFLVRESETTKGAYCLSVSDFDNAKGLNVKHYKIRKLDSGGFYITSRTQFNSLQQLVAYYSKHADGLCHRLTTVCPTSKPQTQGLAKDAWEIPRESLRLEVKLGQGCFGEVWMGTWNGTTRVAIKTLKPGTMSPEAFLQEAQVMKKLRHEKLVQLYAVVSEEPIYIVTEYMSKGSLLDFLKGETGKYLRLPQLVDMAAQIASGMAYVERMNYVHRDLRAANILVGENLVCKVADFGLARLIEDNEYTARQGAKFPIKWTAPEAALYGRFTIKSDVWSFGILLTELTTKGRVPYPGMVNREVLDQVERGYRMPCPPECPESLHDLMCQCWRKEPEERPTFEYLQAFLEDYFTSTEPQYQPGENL
SMILES,GI50 (MV4-11 cells) [nM],GI50 (K562 cells) [nM],pIC50 (CDK2/E; [1]),pIC50 (CDK4/D1; [2]),pIC50 (FLT3-ITD; [3]),CDK4 inhibition in selectivity panel (CDK4),FLT3 inhibition in selectivity panel (FLT3),remaining activity at 1 µM (Src) [%],selectivity index (ratio for GI50's of K562 and MV4-11 cells) (MV4-11 cells; K562 / MV4-11),pIC50 (CDK2/E; read-out: IC50 CDK2),pIC50 (CDK4/D1; read-out: IC50 CDK4),pIC50 (FLT3-ITD; read-out: IC50 FLT3),remaining activity at 1 µM (CDK4; read-out: residual enzyme activity CDK4) [%]
Cn1c(=O)n(C2CCCC2)c2nc(Nc3ccc(N4CCNCC4)cc3)ncc21 [14d],120,960,< 6.00 and 5.74,6.80,7.08,potent CDK4 and FLT3 inhibitors,potent CDK4 and FLT3 inhibitors,≤ 10,–,–,–,–,–
Cn1c(=O)n(C2CCCCC2)c2nc(Nc3ccc(N4CCNCC4)cc3)ncc21 [14e],200,4530,6.52,7.70,7.17,potent CDK4 and FLT3 inhibitors,potent CDK4 and FLT3 inhibitors,≤ 10,> 20,≥ 6.52,≥ 6.52,≥ 6.52,–
"CC(C)n1c(=O)n(C2CCCC2)c2nc(Nc3ccc(N4CCNCC4)cc3)ncc21 [15a, 9-cyclopentyl-7-isopropyl-2-((4-(piperazin-1-yl)phenyl)amino)-7,9-dihydro-8H-purin-8-one]",50,580,5.30,5.72,7.43,–,1st rank,≤ 10,–,–,–,–,90
